Laboratory results taken from ChEMBL document CHEMBL4229455, “Synthesis and anticancer activity of novel bisindolylhydroxymaleimide derivatives with potent GSK-3 kinase inhibition” (Bioorg Med Chem, 2018).

Legend:
Format in all cases: functional
[1] = test system: MDA-MB-435; assay: Cytotoxicity against human MDA-MB-435 cells assessed as cell growth at 0.01 uM after 48 hrs by SRB assay relative to control; conditions: MDA-MB-435, 48 h, read-out: Activity
[2] = test system: UACC-62; assay: Cytotoxicity against human UACC62 cells assessed as cell growth at 0.01 uM after 48 hrs by SRB assay relative to control; conditions: UACC-62, 48 h, read-out: Activity
[3] = test system: OVCAR-3; assay: Cytotoxicity against human OVCAR3 cells assessed as cell growth at 0.01 uM after 48 hrs by SRB assay relative to control; conditions: OVCAR-3, 48 h, read-out: Activity
[4] = test system: OVCAR-5; assay: Cytotoxicity against human OVCAR5 cells assessed as cell growth at 0.01 uM after 48 hrs by SRB assay relative to control; conditions: OVCAR-5, 48 h, read-out: Activity
[5] = test system: OVCAR-8; assay: Cytotoxicity against human OVCAR8 cells assessed as cell growth at 0.01 uM after 48 hrs by SRB assay relative to control; conditions: OVCAR-8, 48 h, read-out: Activity
[6] = test system: ACHN; assay: Cytotoxicity against human ACHN cells assessed as cell growth at 0.01 uM after 48 hrs by SRB assay relative to control; conditions: read-out: Activity
[7] = test system: SN12C; assay: Cytotoxicity against human SN12C cells assessed as cell growth at 0.01 uM after 48 hrs by SRB assay relative to control; conditions: read-out: Activity
[8] = test system: DU-145; assay: Cytotoxicity against human DU145 cells assessed as cell growth at 0.01 uM after 48 hrs by SRB assay relative to control; conditions: DU-145, 48 h, read-out: Activity
[9] = test system: HL-60(TB); assay: Cytotoxicity against human HL-60(TB) cells assessed as cell growth at 0.1 uM after 48 hrs by SRB assay relative to control; conditions: HL-60, 48 h, read-out: Activity
[10] = test system: HOP-62; assay: Cytotoxicity against human HOP62 cells assessed as cell growth at 0.1 uM after 48 hrs by SRB assay relative to control; conditions: HOP-62, 48 h, read-out: Activity
[11] = test system: SNB-19; assay: Cytotoxicity against human SNB19 cells assessed as cell growth at 0.1 uM after 48 hrs by SRB assay relative to control; conditions: SNB-19, 48 h, read-out: Activity
[12] = test system: SK-MEL-28; assay: Cytotoxicity against human SK-MEL-28 cells assessed as cell growth at 0.1 uM after 48 hrs by SRB assay relative to control; conditions: SK-MEL-28, 48 h, read-out: Activity
[13] = test system: SK-MEL-5; assay: Cytotoxicity against human SK-MEL-5 cells assessed as cell growth at 0.1 uM after 48 hrs by SRB assay relative to control; conditions: SK-MEL-5, 48 h, read-out: Activity
[14] = test system: UACC-257; assay: Cytotoxicity against human UACC257 cells assessed as cell growth at 0.1 uM after 48 hrs by SRB assay relative to control; conditions: UACC-257, 48 h, read-out: Activity
[15] = test system: NCI/ADR-RES; assay: Cytotoxicity against human NCI-ADR-RES cells assessed as cell growth at 0.1 uM after 48 hrs by SRB assay relative to control; conditions: read-out: Activity
[16] = test system: PC-3; assay: Cytotoxicity against human PC3 cells assessed as cell growth at 0.1 uM after 48 hrs by SRB assay relative to control; conditions: PC-3, 48 h, read-out: Activity
[17] = test system: Hs-578T; assay: Cytotoxicity against human Hs 578T cells assessed as cell growth at 0.1 uM after 48 hrs by SRB assay relative to control; conditions: read-out: Activity
[18] = test system: HOP-92; assay: Cytotoxicity against human HOP92 cells assessed as cell growth at 1 uM after 48 hrs by SRB assay relative to control; conditions: HOP-92, 48 h, read-out: Activity
[19] = test system: SF-539; assay: Cytotoxicity against human SF539 cells assessed as cell growth at 1 uM after 48 hrs by SRB assay relative to control; conditions: SF-539, 48 h, read-out: Activity
[20] = test system: SNB-75; assay: Cytotoxicity against human SNB75 cells assessed as cell growth at 1 uM after 48 hrs by SRB assay relative to control; conditions: SNB-75, 48 h, read-out: Activity
[21] = test system: LOX IMVI; assay: Cytotoxicity against human LOXIMVI cells assessed as cell growth at 1 uM after 48 hrs by SRB assay relative to control; conditions: read-out: Activity
[22] = test system: M14; assay: Cytotoxicity against human M14 cells assessed as cell growth at 1 uM after 48 hrs by SRB assay relative to control; conditions: M14, 48 h, read-out: Activity
[23] = test system: MDA-MB-435; assay: Cytotoxicity against human MDA-MB-435 cells assessed as cell growth at 1 uM after 48 hrs by SRB assay relative to control; conditions: MDA-MB-435, 48 h, read-out: Activity
[24] = test system: SK-MEL-5; assay: Cytotoxicity against human SK-MEL-5 cells assessed as cell growth at 1 uM after 48 hrs by SRB assay relative to control; conditions: SK-MEL-5, 48 h, read-out: Activity
[25] = test system: UACC-257; assay: Cytotoxicity against human UACC257 cells assessed as cell growth at 1 uM after 48 hrs by SRB assay relative to control; conditions: UACC-257, 48 h, read-out: Activity
[26] = test system: UACC-62; assay: Cytotoxicity against human UACC62 cells assessed as cell growth at 1 uM after 48 hrs by SRB assay relative to control; conditions: UACC-62, 48 h, read-out: Activity
[27] = test system: RXF 393; assay: Cytotoxicity against human RXF393 cells assessed as cell growth at 1 uM after 48 hrs by SRB assay relative to control; conditions: RXF 393, 48 h, read-out: Activity
[28] = test system: CCRF-CEM; assay: Cytotoxicity against human CCRF-CEM cells assessed as cell growth at 100 uM after 48 hrs by SRB assay relative to control; conditions: read-out: Activity
[29] = test system: SR; assay: Cytotoxicity against human SR cells assessed as cell growth at 100 uM after 48 hrs by SRB assay relative to control; conditions: read-out: Activity
[30] = test system: MCF7; assay: Cytotoxicity against human MCF7 cells assessed as cell growth at 100 uM after 48 hrs by SRB assay relative to control; conditions: MCF7, 48 h, read-out: Activity
[31] = test system: Hs-578T; assay: Cytotoxicity against human Hs 578T cells assessed as cell growth at 100 uM after 48 hrs by SRB assay relative to control; conditions: read-out: Activity
[32] = test system: SR; assay: Cytotoxicity against human SR cells after 48 hrs by SRB assay
[33] = test system: NCI-H460; assay: Cytotoxicity against human NCI-H460 cells after 48 hrs by SRB assay; conditions: NCI-H460, 48 h
[34] = test system: HCT-15; assay: Cytotoxicity against human HCT15 cells after 48 hrs by SRB assay; conditions: HCT-15, 48 h
[35] = test system: SW-620; assay: Cytotoxicity against human SW620 cells after 48 hrs by SRB assay; conditions: SW-620, 48 h
[36] = test system: UACC-257; assay: Cytotoxicity against human UACC257 cells after 48 hrs by SRB assay; conditions: UACC-257, 48 h
[37] = test system: MCF7; assay: Cytotoxicity against human MCF7 cells after 48 hrs by SRB assay; conditions: MCF7, 48 h

N#CCCCCCn1cc(C2=C(c3cn(CCCCCC#N)c4ccccc34)C(=O)N(O)C2=O)c2ccccc21 gave a growth at 0.01 µM [1] of 95%, a growth at 0.01 µM [2] of 95% and a growth at 0.01 µM [3] of 99%. The growth at 0.01 µM [4] was 99%, the growth at 0.01 µM [5] was 99% and the growth at 0.01 µM [6] was 99%. The growth at 0.01 µM [7] was 97%, the growth at 0.01 µM [8] was 101% and the growth at 0.1 µM [9] was 89%. It also gave a growth at 0.1 µM [10] of 85%, a growth at 0.1 µM [11] of 95% and a growth at 0.1 µM [12] of 102%. For the same molecule, the growth at 0.1 µM [13] was 99%, the growth at 0.1 µM [14] was 100% and the growth at 0.1 µM [15] was 92%. It also gave a growth at 0.1 µM [16] of 88%, a growth at 0.1 µM [17] of 91% and a growth at 1 µM [18] of 109%. It also gave a growth at 1 µM [19] of 93%, a growth at 1 µM [20] of 80% and a growth at 1 µM [21] of 71%. It also gave a growth at 1 µM [22] of 89%, a growth at 1 µM [23] of 96% and a growth at 1 µM [24] of 92%. For the same molecule, the growth at 1 µM [25] was 97%, the growth at 1 µM [26] was 87% and the growth at 1 µM [27] was 98%. The growth at 100 µM [28] was 3%, the growth at 100 µM [29] was -14% and the growth at 100 µM [30] was -14%. For the same molecule, the growth at 100 µM [31] was 5%, the GI50 [32] was 3.55 µM and the LC50 [32] was over 100 µM. It also gave a TGI [32] of 9.48 µM, a GI50 [33] of 5.05 µM and an LC50 [33] of over 100 µM. The TGI [33] was 33 µM, the GI50 [34] was 3.88 µM and the LC50 [34] was over 100 µM. It also gave a TGI [34] of over 100 µM, a GI50 [35] of 4.76 µM and an LC50 [35] of over 100 µM. The TGI [35] was over 100 µM, the GI50 [36] was 12.1 µM and the LC50 [36] was over 100 µM. The TGI [36] was 55.6 µM, the GI50 [37] was 3.57 µM and the LC50 (concentration killing 50% of cells) [37] was over 100 µM. The TGI [37] was 30.7 µM.
Molecule Cn1cc(C2=C(c3cn(C)c4ncccc34)C(=O)NC2=O)c2ccccc21 has a growth at 0.01 µM [1] of 98%, a growth at 0.01 µM [2] of 97% and a growth at 0.01 µM [3] of 107%. It also gave a growth at 0.01 µM [4] of 98%, a growth at 0.01 µM [5] of 105% and a growth at 0.01 µM [6] of 100%. It also gave a growth at 0.01 µM [7] of 89%, a growth at 0.01 µM [8] of 107% and a growth at 0.1 µM [9] of 99%. For the same molecule, the growth at 0.1 µM [10] was 103%, the growth at 0.1 µM [11] was 91% and the growth at 0.1 µM [12] was 95%. For the same molecule, the growth at 0.1 µM [13] was 101%, the growth at 0.1 µM [14] was 103% and the growth at 0.1 µM [15] was 96%. The growth at 0.1 µM [16] was 94%, the growth at 0.1 µM [17] was 81% and the growth at 1 µM [18] was 76%. The growth at 1 µM [19] was 86%, the growth at 1 µM [20] was 32% and the growth at 1 µM [21] was 74%. The growth at 1 µM [22] was 110%, the growth at 1 µM [23] was 40% and the growth at 1 µM [24] was 89%. It also gave a growth at 1 µM [25] of 112%, a growth at 1 µM [26] of 89% and a growth at 1 µM [27] of 83%. It also gave a growth at 100 µM [28] of 2%, a growth at 100 µM [29] of -21% and a growth at 100 µM [30] of -15%. It also gave a growth at 100 µM [31] of -37%, a GI50 [32] of 1.04 µM and a TGI [32] of 18.4 µM. The GI50 [33] was 3.8 µM, the TGI [33] was 22 µM and the GI50 [34] was 3.49 µM. The TGI [34] was 60.5 µM, the GI50 [35] was 3.61 µM and the TGI [35] was 32.6 µM. For the same molecule, the GI50 [36] was 6.32 µM, the TGI [36] was 54.8 µM and the GI50 [37] was 2.4 µM. The TGI [37] was 29.5 µM.
